Source: patent US8686150B2 (Sanofi, priority 2011, dated 2014)

Target: T1, human full-length recombinant PKC βII (Homo sapiens, UniProt P05771)
T1 construct: Active human full-length recombinant PKC βII; purchased Invitrogen GmbH, Darmstadt, Germany
Assay: Determination of PKC βII inhibition (Caliper mobility-shift kinase assay, Fluorescein-RFARKGSLRQKNV peptide substrate)
Type: biochemical
Details: example compounds at a final concentration of 1.14 μM (±0.15 μM)
Protocol: Determination of PKC βII Inhibition
PKC βII Inhibition was Determined According to the Following Protocol:
Active human full-length recombinant PKC βII and the peptide substrate, Fluorescein-RFARKGSLRQKNV, were purchased from Invitrogen GmbH, Darmstadt, Germany. Adenosine-5′-triphosphate (ATP), bovine serum albumine (BSA), dimethylsulphoxide (DMSO), 4-(2-hydroxyethyl)piperazine-1-ethanesulfonic acid (Hepes), Triton X-100, 1,2-Dioleoyl-sn-glycerol (DAG), L-G-Phosphatidyl-L-serine (PS), calcium chloride (CaCl2), and Pluronic F-68 were purchased from Sigma-Aldrich, Munich, Germany. Magnesium chloride, 1 M sodium hydroxide solution, 1M hydrochloric acid solution and EDTA were obtained from Merck Biosciences, Darmstadt, Germany.
Test compounds were diluted to three times the test concentration in buffer 1 (30 mM Hepes-NaOH, pH 7.4, 0.01% Pluronic F-68 and 3% (v/v) DMSO). The PKC enzyme was diluted to a concentration of 30 ng/ml in buffer 2 (30 mM Hepes-NaOH, pH 7.4, 15 mM MgCl2, 150 μM CaCl2, 150 μg/ml PS, 60 μg/ml DAG, and 0.045% (w/v) Triton X-100). The peptide substrate and ATP were diluted to concentrations of 3 μM and 120 μM, respectively, in buffer 2. Two μl of the compound solution were mixed with 2 μl of the diluted enzyme in a 384-well small volume microtiter plate (Greiner, Bio-One, Frickenhausen, Germany), and the kinase reaction was initiated by addition of 2 μl of the solution containing peptide substrate and ATP. After 60 min incubation at 32° C., the reaction was stopped by addition of 20 μl of a solution containing 130 mM Hepes-NaOH, pH 7.4. 0.0195% (v/v) Brij-35, 6.5 mM EDTA. 0.13% chip coating reagent 3 (Caliper Lifescience Inc, Hopkinton, Mass.) and 6.5% (v/v) DMSO. Phosphorylation of the substrate peptide was then detected on a Caliper 3000 instrument essentially as described by Pommereau et al (J. Biomol. Screening 2004, 9(5), 409-416). Separation conditions were as follows: Pressure −0.8 psi, upstream voltage −3000 V, downstream voltage −800 V. Positive controls (buffer 1 instead of compound) and negative controls (buffer 1 instead of compound and buffer 2 instead of kinase solution) were run in parallel on each plate. Fractional turnover (R) was determined as the height of the peak of the phosphorylated peptide product divided by the sum of the unphosphorylated substrate and phosphorylated product peak heights. Percent-inhibition values for the test compounds were determined using the formula % Inhibition=100*(1−(Rcompound−Rnegative control)/(Rpositive control−Rnegative control).
In the following table % inhibition values observed with example compounds at a final concentration of 1.14 μM (±0.15 μM) are listed: […]

T1 sequence (P05771 1-673 isoform P05771-2): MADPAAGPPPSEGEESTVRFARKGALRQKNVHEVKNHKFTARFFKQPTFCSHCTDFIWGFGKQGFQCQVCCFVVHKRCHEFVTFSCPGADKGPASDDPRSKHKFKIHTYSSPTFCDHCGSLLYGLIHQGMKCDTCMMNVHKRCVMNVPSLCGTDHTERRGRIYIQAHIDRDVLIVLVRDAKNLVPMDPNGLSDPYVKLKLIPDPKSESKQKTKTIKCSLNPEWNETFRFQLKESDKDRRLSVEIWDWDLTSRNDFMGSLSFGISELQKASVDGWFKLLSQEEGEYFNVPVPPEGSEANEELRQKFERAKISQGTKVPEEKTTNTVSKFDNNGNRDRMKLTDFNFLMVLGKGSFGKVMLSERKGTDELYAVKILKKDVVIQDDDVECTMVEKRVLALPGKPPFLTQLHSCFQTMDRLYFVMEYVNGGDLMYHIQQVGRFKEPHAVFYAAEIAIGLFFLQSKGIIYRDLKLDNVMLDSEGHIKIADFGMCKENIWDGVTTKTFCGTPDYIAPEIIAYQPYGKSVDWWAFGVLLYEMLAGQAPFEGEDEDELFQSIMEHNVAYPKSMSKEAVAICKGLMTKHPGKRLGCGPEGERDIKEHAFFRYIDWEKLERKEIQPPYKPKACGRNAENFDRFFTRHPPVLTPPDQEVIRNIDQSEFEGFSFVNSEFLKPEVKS

SMILES	inhibition at 1.14 µM	% Inhibition
CCCC[C@H]1CN(C(=O)c2cc(-c3ccc(O)cc3)nc3[nH]nc(C)c23)CCN1 [Example 209, ((S)-3-Butyl-piperazin-1-yl)-[6-(4-hydroxy-phenyl)-3-methyl-1H-pyrazolo[3,4-b]pyridin-4-yl]-methanone]	97%	–
Cc1n[nH]c2nc(-c3ccc(O)cc3F)cc(C(=O)NCC3(N)CCCCCC3)c12 [Example 61, 6-(2-Fluoro-4-hydroxy-phenyl)-3-methyl-1H-pyrazolo[3,4-b]pyridine-4-carboxylic acid (1-amino-cycloheptylmethyl)-amide]	92%	–
Cc1n[nH]c2nc(-c3ccc(O)cc3)cc(C(=O)N3CCNC[C@H]3C(=O)NC(C)(C)C)c12 [Example 232, (S)-1-[6-(4-Hydroxy-phenyl)-3-methyl-1H-pyrazolo[3,4-b]pyridine-4-carbonyl]-piperazine-2-carboxylic acid tert-butylamide]	95%	–
COC(=O)C1(N)CCN(C(=O)c2cc(-c3ccc(O)cc3)nc3[nH]nc(C)c23)CC1 [Example 283, 4-Amino-1-[6-(4-hydroxy-phenyl)-3-methyl-1H-pyrazolo[3,4-b]pyridine-4-carbonyl]-piperidine-4-carboxylic acid methyl ester]	45%	–
Cc1n[nH]c2nc(-c3ccc(O)cc3)cc(C(=O)NC(CN)c3ccccc3)c12 (centres unmarked) [Example 104, 6-(4-Hydroxy-phenyl)-3-methyl-1H-pyrazolo[3,4-b]pyridine-4-carboxylic acid (2-amino-1-phenyl-ethyl)-amide]	94%	–
Cc1n[nH]c2nc(-c3ccc(O)cc3)cc(C(=O)NC3CCCC(N)C3)c12 (centres unmarked) [Example 254, 6-(4-Hydroxy-phenyl)-3-methyl-1H-pyrazolo[3,4-b]pyridine-4-carboxylic acid (3-amino-cyclohexyl)-amide]	80%	–
Cc1n[nH]c2nc(-c3ccc(O)c(F)c3)cc(C(=O)N3C[C@H]4CC[C@@H](C3)C4N)c12 (some centres unmarked) [Example 310, (8-Amino-3-aza-bicyclo[3.2.1]oct-3-yl)-[6-(3-fluoro-4-hydroxy-phenyl)-3-methyl-1H-pyrazolo[3,4-b]pyridin-4-yl]-methanone]	91%	–
Cc1n[nH]c2nc(-c3ccc(O)cc3)cc(C(=O)N[C@H]3CC[C@H](N)CC3)c12 [Example 77, 6-(4-Hydroxy-phenyl)-3-methyl-1H-pyrazolo[3,4-b]pyridine-4-carboxylic acid (trans-4-amino-cyclohexyl)-amide]	60%	–
Cc1n[nH]c2nc(-c3ccc(O)cc3)cc(C(=O)N3CC(CN)C3)c12 [Example 90, (3-Aminomethyl-azetidin-1-yl)-[6-(4-hydroxy-phenyl)-3-methyl-1H-pyrazolo[3,4-b]pyridin-4-yl]-methanone]	96%	–
Cc1n[nH]c2nc(-c3ccc(O)cc3F)cc(C(=O)N3C[C@@H](C)N(CC4CCOC4)C[C@@H]3C)c12 (stereo partly drawn) [Example 455, [(2S,5R)-2,5-Dimethyl-4-(tetra-hydro-furan-3-ylmethyl)-piperazin-1-yl]-[6-(2-fluoro-4-hydroxy-phenyl)-3-methyl-1H-pyrazolo[3,4-b]pyridin-4-yl]-methanone]	92%	–
Cc1n[nH]c2nc(-c3ccc(O)c(F)c3)cc(C(=O)N3CCNC[C@H]3Cc3ccccc3)c12 [Example 321, ((R)-2-Benzyl-piperazin-1-yl)-[6-(3-fluoro-4-hydroxy-phenyl)-3-methyl-1H-pyrazolo[3,4-b]pyridin-4-yl]-methanone]	84%	–
COc1ccccc1C(=O)N1CCN(C(=O)c2cc(-c3ccc(O)cc3)nc3[nH]nc(C)c23)CC1 [Example 381, [6-(4-Hydroxy-phenyl)-3-methyl-1H-pyrazolo[3,4-b]pyridin-4-yl]-[4-(2-methoxy-benzoyl)-piperazin-1-yl]-methanone]	37%	–
CNC1CCN(C(=O)c2cc(-c3ccc(O)cc3)nc3[nH]nc(C)c23)C1 (centres unmarked) [Example 240, [6-(4-Hydroxy-phenyl)-3-methyl-1H-pyrazolo[3,4-b]pyridin-4-yl]-(3-methylamino-pyrrolidin-1-yl)-methanone]	94%	–
CCc1n[nH]c2nc(-c3ccc(O)cc3)cc(C(=O)N[C@@H]3CN4CCC3CC4)c12 [Example 162, (S)-3-Ethyl-6-(4-hydroxy-phenyl)-1H-pyrazolo[3,4-b]pyridine-4-carboxylic acid (1-aza-bicyclo[2.2.2]oct-3-yl)-amide]	51%	–
Cc1n[nH]c2nc(-c3ccc(O)cc3)cc(C(=O)N3CC[C@@H](N(C)C)C3)c12 [Example 238, ((R)-3-Dimethylamino-pyrrolidin-1-yl)-[6-(4-hydroxy-phenyl)-3-methyl-1H-pyrazolo[3,4-b]pyridin-4-yl]-methanone]	77%	–
Cc1n[nH]c2nc(-c3cc(F)c(O)c(F)c3)cc(C(=O)N3CCNCC3)c12 [Example 12, [6-(3,5-Difluoro-4-hydroxy-phenyl)-3-methyl-1H-pyrazolo[3,4-b]pyridin-4-yl]-piperazin-1-yl-methanone]	61%	–
Cc1n[nH]c2nc(-c3ccc(O)cc3F)cc(C(=O)N3C[C@@H](c4ccccc4)NC[C@@H]3C)c12 (single isomer, unassigned) [Example 461, [6-(2-Fluoro-4-hydroxy-phenyl)-3-methyl-1H-pyrazolo[3,4-b]pyridin-4-yl]-(trans-2-methyl-5-phenyl-piperazin-1-yl)-methanone]	–	99%
CCc1n[nH]c2nc(-c3ccc(O)cc3)cc(C(=O)NC3CCCC(N)C3)c12 (centres unmarked) [Example 170, 3-Ethyl-6-(4-hydroxy-phenyl)-1H-pyrazolo[3,4-b]pyridine-4-carboxylic acid (3-amino-cyclohexyl)-amide]	59%	–
COC[C@H]1CN(C(=O)c2cc(-c3ccc(O)cc3)nc3[nH]nc(C)c23)CCN1 [Example 212, [6-(4-Hydroxy-phenyl)-3-methyl-1H-pyrazolo[3,4-b]pyridin-4-yl]-((R)-3-methoxymethyl-piperazin-1-yl)-methanone]	94%	–
Cc1n[nH]c2nc(-c3ccc(O)c(F)c3)cc(C(=O)N3CCCC4CNCCC43)c12 (centres unmarked) [Example 324, [6-(3-Fluoro-4-hydroxy-phenyl)-3-methyl-1H-pyrazolo[3,4-b]pyridin-4-yl]-(octahydro-[1,6]naphthyridin-1-yl)-methanone]	69%	–
CC[C@H]1CN(C(=O)c2cc(-c3ccc(O)c(F)c3)nc3[nH]nc(C)c23)CCN1 [Example 295, ((S)-3-Ethyl-piperazin-1-yl)-[6-(3-fluoro-4-hydroxy-phenyl)-3-methyl-1H-pyrazolo[3,4-b]pyridin-4-yl]-methanone]	94%	–
Cc1n[nH]c2nc(-c3ccc(O)c(F)c3)cc(C(=O)N3CCNC[C@@H]3C(C)C)c12 [Example 320, [6-(3-Fluoro-4-hydroxy-phenyl)-3-methyl-1H-pyrazolo[3,4-b]pyridin-4-yl]-((S)-2-isopropyl-piperazin-1-yl)-methanone]	72%	–
Cc1n[nH]c2nc(-c3ccc(O)cc3)cc(C(=O)N3CCC(C)(N)C3)c12 (centres unmarked) [Example 122, (3-Amino-3-methyl-pyrrolidin-1-yl)-[6-(4-hydroxy-phenyl)-3-methyl-1H-pyrazolo[3,4-b]pyridin-4-yl]-methanone]	89%	–
Cc1n[nH]c2nc(-c3ccc(O)cc3F)cc(C(=O)N3CC(C)NCC34CCCC4)c12 (centres unmarked) [Example 438, [6-(2-Fluoro-4-hydroxy-phenyl)-3-methyl-1H-pyrazolo[3,4-b]pyridin-4-yl]-(8-methyl-6,9-diaza-spiro[4.5]dec-6-yl)-methanone]	98%	–
Cc1n[nH]c2nc(-c3ccc(O)cc3)cc(C(=O)N3CCNCC3(C)C)c12 [Example 199, (2,2-Dimethyl-piperazin-1-yl)-[6-(4-hydroxy-phenyl)-3-methyl-1H-pyrazolo[3,4-b]pyridin-4-yl]-methanone]	99%	–
Cc1n[nH]c2nc(-c3ccc(O)cc3)cc(C(=O)N3C[C@H]4CC[C@@H](C3)C4N)c12 (some centres unmarked) [Example 227, (8-Amino-3-aza-bicyclo[3.2.1]oct-3-yl)-[6-(4-hydroxy-phenyl)-3-methyl-1H-pyrazolo[3,4-b]pyridin-4-yl]-methanone]	100%	–
